Data published in patent US9718819B2 (Merck Sharp & Dohme Corp., priority 2012, dated 2017).
pIC50: −log10 of the molar value.

Biological target: HIV-1 RT wild-type enzyme (Human immunodeficiency virus type 1 group M subtype B (isolate HXB2) (HIV-1), UniProt P04585)
Assay: HIV-1 reverse transcriptase inhibitory activity (RT polymerase assay)
Assay type: biochemical
Details: HIV-1 RT wild-type enzyme 83 pM; RNA-dependent DNA polymerase activity; read-out: IC50
Description: Determination of HIV-1 Reverse Transcriptase Inhibitory Activity
The heterodimeric nucleic acid substrate used in the HIV-1 RT polymerase reactions was generated by annealing the DNA primer, biotinylated pD500 (Sigma Aldrich, USA, 5′-biotin-ttg aaa tga ctg cgg tac ggc-3′), SEQ ID NO. 1 to the nucleotide RNA template t500 (derived from hepatitis C virus [HCV] sequence, IBA, Germany, 5′-[…]-3′), SEQ ID NO 2). […] The mixture was then preincubated on an orbital shaker for 30 min at room temperature in microtiter plates (Costar 3365, Corning, USA). A polymerization reaction was initiated by the addition of RNA template/pD500 DNA primer hybrid (16.6 nM final of RNA/DNA hybrid) and dNTPs (2 μM dATP, dGTP, dCTP and 66.6 nM Ru-dUTP (Meso Scale Discovery, USA)). Plate was sealed and incubated for 5-10 min at room temperature on an orbital shaker. Plate was then incubated for 90 min at 37° C. and reactions quenched with 60 μl quenching buffer (50 mM EDTA, 0.7% BSA, 0.7% Tween-20, 0.017% sodium azide in PBS). The resulting solution was incubated at room temperature for an additional 5 min and then 50 μL was transferred to pre-blocked Avidin plates (L15AA, Meso Scale Discovery). Each well of Avidin plate was blocked for 1 h at room temperature with 100 μL 5% BSA in PBS. Blocking solution was removed by tapping vigorously on filter paper to remove all excess liquid. Reaction on pre-blocked avidin plate proceeded for 60 min at room temperature and then contents removed by tapping vigorously on filter paper to remove all excess liquid. After washing plate 3 times with 150 μL 1×PBS and blotting dry between cycles, 150 μL 1× Read Buffer T (4× Read Buffer T, Meso Scale Discovery) was added and incubated for 5 min at room temperature before counting on a Sector Imager […] (Meso Scale Discovery). Titration curves and IC50 values were calculated using a four parameter logisitc fit according to standard procedures. Briefly, % Inhibition=100×((sample raw value)−(mean value of the low control or 0% inhibition))/((mean value of wells representing 100% inhbition)−(mean value of 0% inhbition)). In this assay, low control wells contain DMSO (0% inhbition) and 100% inhibition wells contain 1 μM efavirenz.

N#Cc1cc(Cl)cc(Oc2c(C(F)(F)F)ncn(Cc3cnc(C4CC4)[nH]c3=O)c2=O)c1 [Example 145, 3-chloro-5-((1-((2-cyclopropyl-6-oxo-1,6-dihydropyrimidin-5-yl)methyl)-6-oxo-4-(trifluoromethyl)-1,6-dihydropyrimidin-5-yl)oxy)benzonitrile]
pIC50: 8.05

Cn1cc(-c2cc(Cn3cnc(C(F)(F)F)c(Oc4cc(Cl)cc(C#N)c4)c3=O)n[nH]c2=O)cn1 [Example 72, 3-chloro-5-((1-((5-(1-methyl-1H-pyrazol-4-yl)-6-oxo-1,6-dihydropyridazin-3-yl)methyl)-6-oxo-4-(trifluoromethyl)-1,6-dihydropyrimidin-5-yl)oxy)benzonitrile]
pIC50: 8.15

N#Cc1cc(Cl)cc(Oc2c(C(F)(F)F)ncn(Cc3cc(-n4ccnn4)c(=O)[nH]n3)c2=O)c1 [Example 94, 3-chloro-5-((6-oxo-1-((6-oxo-5-(1H-1,2,3-triazol-1-yl)-1,6-dihydropyridazin-3-yl)methyl)-4-(trifluoromethyl)-1,6-dihydropyrimidin-5-yl)oxy)benzonitrile]
pIC50: 7.32

N#Cc1cc(Cl)cc(Oc2c(C(F)(F)F)ncn(Cc3cc(-c4ccccc4F)c(=O)[nH]n3)c2=O)c1 [Example 25, 3-chloro-5-((1-((5-(2-fluorophenyl)-6-oxo-1,6-dihydropyridazin-3-yl)methyl)-6-oxo-4-(trifluoromethyl)-1,6-dihydropyrimidin-5-yl)oxy)benzonitrile]
pIC50: 8.05

N#Cc1cc(Cl)cc(Oc2c(C(F)(F)F)ncn(Cc3cnc(O)[nH]c3=O)c2=O)c1 [Example 135, 3-chloro-5-((1-((2-hydroxy-6-oxo-1,6-dihydropyrimidin-5-yl)methyl)-6-oxo-4-(trifluoromethyl)-1,6-dihydropyrimidin-5-yl)oxy)benzonitrile]
pIC50: 8.10

N#Cc1cc(Cl)cc(Oc2c(C(F)(F)F)ncn(Cc3cnc[nH]c3=O)c2=O)c1 [Example 136, 3-chloro-5-((6-oxo-1-((6-oxo-1,6-dihydropyrimidin-5-yl)methyl)-4-(trifluoromethyl)-1,6-dihydropyrimidin-5-yl)oxy)benzonitrile]
pIC50: 8.22

Cc1ccc(-c2cc(Cn3cnc(C(F)(F)F)c(Oc4cc(Cl)cc(C#N)c4)c3=O)n[nH]c2=O)c(F)c1 [Example 42, 3-chloro-5-((1-((5-(2-fluoro-4-methylphenyl)-6-oxo-1,6-dihydropyridazin-3-yl)methyl)-6-oxo-4-(trifluoromethyl)-1,6-dihydropyrimidin-5-yl)oxy)benzonitrile]
pIC50: 8.15

COc1ccc(F)c(-c2cc(Cn3cnc(C(F)(F)F)c(Oc4cc(Cl)cc(C#N)c4)c3=O)n[nH]c2=O)c1 [Example 63, 3-chloro-5-((1-((5-(2-fluoro-5-methoxyphenyl)-6-oxo-1,6-dihydropyridazin-3-yl)methyl)-6-oxo-4-(trifluoromethyl)-1,6-dihydropyrimidin-5-yl)oxy)benzonitrile]
pIC50: 8.00

CC(C)Oc1ccc(-c2cc(Cn3cnc(C(F)(F)F)c(Oc4cc(Cl)cc(C#N)c4)c3=O)n[nH]c2=O)cc1F [Example 32, 3-chloro-5-((1-((5-(3-fluoro-4-isopropoxyphenyl)-6-oxo-1,6-dihydropyridazin-3-yl)methyl)-6-oxo-4-(trifluoromethyl)-1,6-dihydropyrimidin-5-yl)oxy)benzonitrile]
pIC50: 7.89

N#Cc1cc(Cl)cc(Oc2c(OC(F)F)ncn(Cc3cc(-c4ccc(F)cc4)c(=O)[nH]n3)c2=O)c1 [Example 166]
pIC50: 8.52

N#Cc1cc(Cl)cc(Oc2c(C(F)(F)F)ncn(Cc3cc(-c4ccc(F)c(F)c4)c(=O)[nH]n3)c2=O)c1 [Example 29, 3-chloro-5-((1-((5-(3,4-difluorophenyl)-6-oxo-1,6-dihydropyridazin-3-yl)methyl)-6-oxo-4-(trifluoromethyl)-1,6-dihydropyrimidin-5-yl)oxy)benzonitrile]
pIC50: 8.52

N#Cc1cc(Cl)cc(Oc2c(C(F)(F)F)ncn(Cc3cc(-c4cc(Cl)ccc4F)c(=O)[nH]n3)c2=O)c1 [Example 47, 3-chloro-5-((1-((5-(5-chloro-2-fluorophenyl)-6-oxo-1,6-dihydropyridazin-3-yl)methyl)-6-oxo-4-(trifluoromethyl)-1,6-dihydropyrimidin-5-yl)oxy)benzonitrile]
pIC50: 7.96

COC(=O)c1cc(Cn2cnc(C(F)(F)F)c(Oc3cc(Cl)cc(C#N)c3)c2=O)n[nH]c1=O [Example 100, methyl 6-((5-(3-chloro-5-cyanophenoxy)-6-oxo-4-(trifluoromethyl)pyrimidin-1(6H)-yl)methyl)-3-oxo-2,3-dihydropyridazine-4-carboxylate]
pIC50: 7.64

CC(=O)c1ncc(Cn2cnc(C(F)(F)F)c(Oc3cc(Cl)cc(C#N)c3)c2=O)c(=O)[nH]1 [Example 156, 3-((1-((2-acetyl-6-oxo-1,6-dihydropyrimidin-5-yl)methyl)-6-oxo-4-(trifluoromethyl)-1,6-dihydropyrimidin-5-yl)oxy)-5-chlorobenzonitrile]
pIC50: 7.62

N#Cc1cc(Cl)cc(Oc2c(C(F)(F)F)ncn(Cc3cc(-c4cncc(F)c4)c(=O)[nH]n3)c2=O)c1 [Example 82, 3-chloro-5-((1-((5-(5-fluoropyridin-3-yl)-6-oxo-1,6-dihydropyridazin-3-yl)methyl)-6-oxo-4-(trifluoromethyl)-1,6-dihydropyrimidin-5-yl)oxy)benzonitrile]
pIC50: 8.15

Cn1nccc1-c1cc(Cn2cnc(C(F)(F)F)c(Oc3cc(Cl)cc(C#N)c3)c2=O)n[nH]c1=O [Example 76, 3-chloro-5-((1-((5-(1-methyl-1H-pyrazo1-5-yl)-6-oxo-1,6-dihydropyridazin-3-yl)methyl)-6-oxo-4-(trifluoromethyl)-1,6-dihydropyrimidin-5-yl)oxy)benzonitrile]
pIC50: 7.00

N#Cc1cc(Cl)cc(Oc2c(C(F)(F)F)ncn(Cc3cc(-c4ccc(F)cc4)n[nH]c3=O)c2=O)c1 [Example 112, 3-chloro-5-((1-((6-(4-fluorophenyl)-3-oxo-2,3-dihydropyridazin-4-yl)methyl)-6-oxo-4-(trifluoromethyl)-1,6-dihydropyrimidin-5-yl)oxy)benzonitrile]
pIC50: 8.30

N#Cc1cc(Cl)cc(Oc2c(C(F)(F)F)ncn(Cc3cc(-c4ccc(C(O)C(F)F)cc4)n[nH]c3=O)c2=O)c1 (stereo not drawn) [Example 125, 3-chloro-5-((1-((6-(4-(2,2-difluoro-1-hydroxyethyl)phenyl)-3-oxo-2,3-dihydropyridazin-4-yl)methyl)-6-oxo-4-(trifluoromethyl)-1,6-dihydropyrimidin-5-yl)oxy)benzonitrile]
pIC50: 8.10

CC(F)(F)c1ncn(Cc2cc(C(F)F)n[nH]c2=O)c(=O)c1Oc1cccc(C#N)c1F [Example 177, 3-((4-(1,1-difluoroethyl)-1-((6-(difluoromethyl)-3-oxo-2,3-dihydropyridazin-4-yl)methyl)-6-oxo-1,6-dihydropyrimidin-5-yl)oxy)-2-fluorobenzonitrile]
pIC50: 7.77

N#Cc1cc(Cl)cc(Oc2c(C(F)(F)F)ncn(Cc3cc(C4CC4)c(=O)[nH]n3)c2=O)c1 [Example 66, 3-chloro-5-((1-((5-cyclopropyl-6-oxo-1,6-dihydropyridazin-3-yl)methyl)-6-oxo-4-(trifluoromethyl)-1,6-dihydropyrimidin-5-yl)oxy)benzonitrile]
pIC50: 8.15

N#Cc1cc(Cl)cc(Oc2c(C(F)(F)F)ncn(Cc3cnc(-c4ccc(F)cc4)[nH]c3=O)c2=O)c1 [Example 146, 3-chloro-5-((1-((2-(4-fluorophenyl)-6-oxo-1,6-dihydropyrimidin-5-yl)methyl)-6-oxo-4-(trifluoromethyl)-1,6-dihydropyrimidin-5-yl)oxy)benzonitrile]
pIC50: 7.72

N#Cc1cc(Cl)cc(Oc2c(C(F)(F)F)ncn(Cc3cc(-c4cccc(Cl)c4F)c(=O)[nH]n3)c2=O)c1 [Example 43, 3-chloro-5-((1-((5-(3-chloro-2-fluorophenyl)-6-oxo-1,6-dihydropyridazin-3-yl)methyl)-6-oxo-4-(trifluoromethyl)-1,6-dihydropyrimidin-5-yl)oxy)benzonitrile]
pIC50: 8.05

CS(=O)(=O)c1cccc(-c2cc(Cn3cnc(C(F)(F)F)c(Oc4cc(Cl)cc(C#N)c4)c3=O)n[nH]c2=O)c1 [Example 70, 3-chloro-5-((1-((5-(3-(methylsulfonyl)phenyl)-6-oxo-1,6-dihydropyridazin-3-yl)methyl)-6-oxo-4-(trifluoromethyl)-1,6-dihydropyrimidin-5-yl)oxy)benzonitrile]
pIC50: 7.82

N#Cc1cc(Cl)cc(Oc2c(C(F)(F)F)ncn(Cc3cc(-c4cc(F)cc(Cl)c4)c(=O)[nH]n3)c2=O)c1 [Example 27, 3-chloro-5-((1-((5-(3-chloro-5-fluorophenyl)-6-oxo-1,6-dihydropyridazin-3-yl)methyl)-6-oxo-4-(trifluoromethyl)-1,6-dihydropyrimidin-5-yl)oxy)benzonitrile]
pIC50: 7.85
